How the values were obtained:
Assay in all cases: Test E preemergence
Type in all cases: in vivo
Conditions in all cases: scale 0 to 100
[1] = test system: crabgrass, Brazil (Brazilian crabgrass, Digitaria horizontalis)
Method in brief: (§1)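 Seeds planted in silt loam were treated preemergence, and plants in Redi-Earth peat medium at 2 to 18 cm (1- to 4-leaf) were treated postemergence, with test chemicals in non-phytotoxic solvent with surfactant. Plants kept in greenhouse 14 to 21 d, then visually rated against controls on a 0–100 scale (0 no effect, 100 complete control).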

[2] = test system: beggarticks (hairy beggarticks, Bidens pilosa)
Method in brief: as §1

[3] = test system: crabgrass, large (large crabgrass, Digitaria sangumnalis)
Method in brief: as §1

[4] = test system: sandbur (southern sandbur, Cenchrus echinatus)
Method in brief: as §1

[5] = test system: arrowleaf Sida (Sida rhombifolia)
Method in brief: as §1

[6] = test system: nutsedge, yellow (yellow nutsedge, Cyperus esculentus)
Method in brief: as §1

[7] = test system: foxtail, giant (giant foxtail, Setaria faberii)
Method in brief: as §1

[8] = test system: surinam grass (Brachiaria decumbens)
Method in brief: as §1

[9] = test system: ryegrass, Italian (Italian ryegrass, Lolium multiflorum)
Method in brief: as §1

[10] = test system: foxtail, green (green foxtail, Setaria viridis)
Method in brief: as §1

soybean (Glycine max) = test system: soybean (Glycine max)
Method in brief: as §1

[11] = test system: goosegrass (Eleusine indica)
Method in brief: as §1

corn (Zea mays) = test system: corn (Zea mays)
Method in brief: as §1

[12] = test system: waterhemp (common waterhemp, Amaranthus rudis)
Method in brief: as §1

[13] = test system: lambsquarters (Chenopodium album)
Method in brief: as §1

[14] = test system: field bindweed (Convolvulus arvensis)
Method in brief: as §1

[15] = test system: horseweed (Conyza canadensis)
Method in brief: as §1

[16] = test system: johnsongrass (Sorghum halepense)
Method in brief: as §1

[17] = test system: Panicum, fall (fall Panicum, Panicum dichotomiflorum)
Method in brief: as §1

[18] = test system: morningglory (Ipomoea coccinea)
Method in brief: as §1

[19] = test system: dayflower, VA (Virginia dayflower, Commelina virginica)
Method in brief: as §1

CN1CC(c2ccc(C(F)(F)F)cc2)C(C(=O)Nc2ccccc2S(C)(=O)=O)C1=O (stereo not shown) [Compound 624]
Plant response rating: Crabgrass, Brazil ([1]; 31 g ai/ha): 80 | Plant response rating: Crabgrass, Brazil ([1]; 62 g ai/ha): 80 | Plant response rating: Crabgrass, Brazil ([1]; 125 g ai/ha): 95 | Plant response rating: Crabgrass, Brazil ([1]; 250 g ai/ha): 100 | Plant response rating: Beggarticks ([2]; 31 g ai/ha): 20 | Plant response rating: Beggarticks ([2]; 62 g ai/ha): 25 | Plant response rating: Beggarticks ([2]; 125 g ai/ha): 40 | Plant response rating: Beggarticks ([2]; 250 g ai/ha): 50 | Plant response rating: Crabgrass, Large ([3]; 31 g ai/ha): 30 | Plant response rating: Crabgrass, Large ([3]; 62 g ai/ha): 85 | Plant response rating: Crabgrass, Large ([3]; 125 g ai/ha): 80 | Plant response rating: Crabgrass, Large ([3]; 250 g ai/ha): 90 | Plant response rating: Sandbur ([4]; 31 g ai/ha): 10 | Plant response rating: Sandbur ([4]; 62 g ai/ha): 30 | Plant response rating: Sandbur ([4]; 125 g ai/ha): 50 | Plant response rating: Sandbur ([4]; 250 g ai/ha): 50 | Plant response rating: Arrowleaf Sida ([5]; 31 g ai/ha): 50 | Plant response rating: Arrowleaf Sida ([5]; 62 g ai/ha): 50 | Plant response rating: Arrowleaf Sida ([5]; 125 g ai/ha): 40 | Plant response rating: Arrowleaf Sida ([5]; 250 g ai/ha): 60 | Plant response rating: Nutsedge, Yellow ([6]; 31 g ai/ha): 0 | Plant response rating: Nutsedge, Yellow ([6]; 62 g ai/ha): 0 | Plant response rating: Nutsedge, Yellow ([6]; 125 g ai/ha): 0 | Plant response rating: Nutsedge, Yellow ([6]; 250 g ai/ha): 10 | Plant response rating: Foxtail, Giant ([7]; 31 g ai/ha): 20 | Plant response rating: Foxtail, Giant ([7]; 62 g ai/ha): 50 | Plant response rating: Foxtail, Giant ([7]; 125 g ai/ha): 70 | Plant response rating: Foxtail, Giant ([7]; 250 g ai/ha): 85 | Plant response rating: Surinam Grass ([8]; 31 g ai/ha): 20 | Plant response rating: Surinam Grass ([8]; 62 g ai/ha): 30 | Plant response rating: Surinam Grass ([8]; 125 g ai/ha): 40 | Plant response rating: Surinam Grass ([8]; 250 g ai/ha): 70 | Plant response rating: Ryegrass, Italian ([9]; 31 g ai/ha): 0 | Plant response rating: Ryegrass, Italian ([9]; 62 g ai/ha): 0 | Plant response rating: Ryegrass, Italian ([9]; 125 g ai/ha): 10 | Plant response rating: Ryegrass, Italian ([9]; 250 g ai/ha): 15 | Plant response rating: Foxtail, Green ([10]; 31 g ai/ha): 20 | Plant response rating: Foxtail, Green ([10]; 62 g ai/ha): 20 | Plant response rating: Foxtail, Green ([10]; 125 g ai/ha): 65 | Plant response rating: Foxtail, Green ([10]; 250 g ai/ha): 75 | Plant response rating: Soybean (soybean (Glycine max); 31 g ai/ha): 0 | Plant response rating: Soybean (soybean (Glycine max); 62 g ai/ha): 10 | Plant response rating: Soybean (soybean (Glycine max); 125 g ai/ha): 20 | Plant response rating: Soybean (soybean (Glycine max); 250 g ai/ha): 10 | Plant response rating: Goosegrass ([11]; 31 g ai/ha): 50 | Plant response rating: Goosegrass ([11]; 62 g ai/ha): 75 | Plant response rating: Goosegrass ([11]; 125 g ai/ha): 80 | Plant response rating: Goosegrass ([11]; 250 g ai/ha): 100 | Plant response rating: Corn (corn (Zea mays); 31 g ai/ha): 0 | Plant response rating: Corn (corn (Zea mays); 62 g ai/ha): 0 | Plant response rating: Corn (corn (Zea mays); 125 g ai/ha): 10 | Plant response rating: Corn (corn (Zea mays); 250 g ai/ha): 20 | Plant response rating: Waterhemp ([12]; 31 g ai/ha): 50 | Plant response rating: Waterhemp ([12]; 62 g ai/ha): 60 | Plant response rating: Waterhemp ([12]; 125 g ai/ha): 75 | Plant response rating: Waterhemp ([12]; 250 g ai/ha): 70 | Plant response rating: Lambsquarters ([13]; 31 g ai/ha): 0 | Plant response rating: Lambsquarters ([13]; 62 g ai/ha): 0 | Plant response rating: Lambsquarters ([13]; 125 g ai/ha): 50 | Plant response rating: Lambsquarters ([13]; 250 g ai/ha): 85 | Plant response rating: Field Bindweed ([14]; 31 g ai/ha): 0 | Plant response rating: Field Bindweed ([14]; 62 g ai/ha): 10 | Plant response rating: Field Bindweed ([14]; 125 g ai/ha): 5 | Plant response rating: Field Bindweed ([14]; 250 g ai/ha): 10 | Plant response rating: Horseweed ([15]; 31 g ai/ha): 30 | Plant response rating: Horseweed ([15]; 62 g ai/ha): 90 | Plant response rating: Horseweed ([15]; 250 g ai/ha): 85 | Plant response rating: Johnsongrass ([16]; 31 g ai/ha): 0 | Plant response rating: Johnsongrass ([16]; 62 g ai/ha): 0 | Plant response rating: Johnsongrass ([16]; 125 g ai/ha): 35 | Plant response rating: Panicum, Fall ([17]; 31 g ai/ha): 0 | Plant response rating: Panicum, Fall ([17]; 62 g ai/ha): 0 | Plant response rating: Panicum, Fall ([17]; 125 g ai/ha): 30 | Plant response rating: Panicum, Fall ([17]; 250 g ai/ha): 60 | Plant response rating: Morningglory ([18]; 31 g ai/ha): 10 | Plant response rating: Morningglory ([18]; 62 g ai/ha): 20 | Plant response rating: Morningglory ([18]; 125 g ai/ha): 50 | Plant response rating: Morningglory ([18]; 250 g ai/ha): 40 | Plant response rating: Dayflower, VA ([19]; 31 g ai/ha): 0 | Plant response rating: Dayflower, VA ([19]; 62 g ai/ha): 0 | Plant response rating: Dayflower, VA ([19]; 125 g ai/ha): 30 | Plant response rating: Dayflower, VA ([19]; 250 g ai/ha): 50
